US7709473B2, “Substituted 2H-[1,2,4]triazolo[4,3-a]pyrazines as GSK-3 inhibitors” (Pfizer Inc., priority 2004, dated 2010)

Target: GSK-3 (Homo sapiens, UniProt P49841)
Assay: GSK-3 inhibition, cell-free 33P-ATP peptide substrate SPA assay
Assay type: biochemical
Details: read-out: inhibitory activity against GSK-3, expressed as IC50
Experimental: The specific activities of the compounds of formula (I) in inhibiting GSK-3 can be determined in both cell-free and cell-based assays, both of which have been previously described in the relevant art. See, for example, U.S. Pat. Nos. 6,417,185 and 6,489,344, the disclosures of which are incorporated herein by reference in their entirety.
A cell-free testing assay can be generally carried out by incubating GSK-3 with a peptide substrate, radiolabeled ATP (e.g., for example, γ^33P- or γ^32P-ATP, both of which are available from Amersham; Arlington Heights, Ill.), magnesium ions, and the compound to be assayed. […] The amount of γ^33P or γ^32P remaining in each well after washing is then quantified to determine the amount of radiolabeled phosphate incorporated into the peptide substrate. […]
Another example of a GSK-3 testing assay, similar to the one described hereinabove, is as follows: enzyme activities are assayed as the incorporation of ^33P from the gamma phosphate of ^33P-ATP (Amersham; Arlington Heights, Ill.; catalog #AH-9968) into biotinylated peptide substrate PKTP-KKAKKL. […] The final concentration of ATP is 0.5 μM (final specific radioactivity of 4 μCi/nmol), and the final concentration of substrate is 0.75 μM. […] Radioactivity associated with the beads is then quantified by standard scintillation counting. […]

GSK-3, sequence (P49841 whole entry): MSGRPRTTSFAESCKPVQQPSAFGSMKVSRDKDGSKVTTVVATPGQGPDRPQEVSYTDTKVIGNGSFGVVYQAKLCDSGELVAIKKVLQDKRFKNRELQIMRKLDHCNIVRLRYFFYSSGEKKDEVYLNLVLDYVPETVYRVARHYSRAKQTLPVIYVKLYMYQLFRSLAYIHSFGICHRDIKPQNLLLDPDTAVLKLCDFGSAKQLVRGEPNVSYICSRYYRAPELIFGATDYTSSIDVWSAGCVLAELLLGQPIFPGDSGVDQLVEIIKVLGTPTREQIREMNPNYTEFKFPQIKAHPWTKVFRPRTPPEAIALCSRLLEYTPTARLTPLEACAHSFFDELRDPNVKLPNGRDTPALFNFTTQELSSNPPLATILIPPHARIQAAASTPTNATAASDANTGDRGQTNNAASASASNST

IC50: 4.84 nM
Compound: COc1ccc(OCCNc2nc(C(C)(C)C)cn3c(=O)[nH]nc23)cc1 [Example 218, 6-tert-Butyl-8-[2-(4-methoxy-phenoxy)-ethylamino]-2H-[1,2,4]triazolo[4,3-a]pyrazin-3-one]
